According to patent publication US9808443B1, “Cyclooxygenase inhibitors” (KING SAUD UNIVERSITY, priority 2016, dated 2017):
Each block holds one compound with its values, some of them ahead of it.

Tests used:
[1] = system: carrageenan-induced rat paw edema; test: carrageenan-induced rat paw edema method (anti-inflammatory activity); format: in vivo; details: for anti-inflammatory activity (in words): compared with standard drug indomethacin; for anti-inflammatory activity, % inhibition of paw edema: equimolar oral dose, rat
Protocol: For the experimental results described below, healthy male albino rats (200 g-220 g) were used for the study. The animals were kept in standard plastic animal cages in groups of six animals each with 12 hour light and dark cycle at 25±2° C. The rats were fed on standard rat chow and provided water ad libitum. The animals were acclimatized to laboratory conditions for a week prior to experiments. Anti-inflammatory activity of the synthesized compounds S1-S18 was determined by the carrageenan-induced rat paw edema method. The compounds were tested at equimolar oral dose and were compared with the standard drug indomethacin. […]. Three compounds, namely S14, S7 and S3 containing R=2,4,5-trimethoxyphenyl; […].
Anti-inflammatory activity was determined by a carrageenan-induced rat paw edema method. Male rats weighing 200 g were housed in a room with a controlled temperature and 12 hour light/12 hour dark cycle, housed in a specific pathogen free environment, and fed standard rodent chow and given water ad libitum. Each treatment group and vehicle group consisted of six randomly assigned animals. Compounds were administered p.o. suspension. Paw edema was induced by intradermal injection of 50 μL of 1% carrageenan into the sub plantar region of the right hind paw, after one hour of compound administration. […] The control group received only the vehicle. Increase in paw edema was compared with that in the control group and percent inhibition was calculated taking the values in the control group as 0% inhibition.

[2] = system: gastric mucosa; details: rat, in vivo
Protocol: For acute ulcerogenesis testing, albino rats were divided into different groups consisting of six animals in each group. […] Control rats received p.o. administration of vehicle (suspension of 1% methyl cellulose). Food (but not water) was removed 24 hours before administration of the test compounds. After the drug treatment, the rats were fed a normal diet for 17 hours and then sacrificed. The stomach was removed and opened along the greater curvature, washed with distilled water and cleaned gently by dipping in saline. The mucosal damage was examined by means of a magnifying glass. For each stomach, the mucosal damage was assessed according to the following scoring system: 0.5 redness; 1.0 spot ulcers; 1.5 hemorrhagic streaks; 2.0 ulcers <3 but ≦5; 3.0 ulcers >5. All of the compounds were tested at equimolar oral doses.

[3] = system: nociceptive response on hot plate; test: hot plate test (analgesic activity); format: in vivo; design: concentration or dose not given beside the values; details: hot plate 58° C.; mice; 120 min after injection
Protocol: Male albino Swiss mice (25 g body weight) were divided into various groups (n=6). Each mouse was initially placed on a hot plate thermostatically maintained at 58° C. […] This time was considered as the control reaction time. A cut-off time of 60 s was used to avoid damage to the paws. To test the analgesic activity of the compounds, each group of mice was treated with one dose of the test compounds. The reaction time was then retested at 0 hour and 120 min after injection (each animal acted as its own control). The percentage changes in the reaction were then calculated.

[4] = system: ethanol-induced gastric ulcer; test: ethanol induced ulcer model (gastro-protective activity: ulcer index, mucus, PAS staining, histology); format: in vivo, rat; details: for histology of gastric tissue (in words): S3 25.6 mg/kg, indomethacin 25 mg/kg; for Ulcer index Mean ± SEM: pretreatment orally (S3 25.6 mg/kg, indomethacin 25 mg/kg) 1 hour before ethanol 95% 20 mL/kg, rats
Description: Gastric mucus plays crucial role in gastro-protection. […] The mucus was formed from mucin-type glycoprotein. The mucus gel adhering to the gastric mucosal surface defends the epithelium beneath against acid, pepsin and necrotizing agents, such as ethanol and indomethacin. […] Gastric wall mucus coating might be relieved in the repair of the damaged gastric epithelium. […] The rats were grouped into five groups (n=6). Group I and II received saline solution and served as negative-control and ulcer-control, respectively. […] The animals were sacrificed 1 hour later under anesthesia and their stomachs were quickly removed for further studies. Periodic acid-Schiff (PAS) staining was used to observe the glycogen level in control and pretreated animals. […] Ethanol-induced gastric ulcers result from several mechanisms, including reduction of gastric mucus and impaired mucosal permeability, and leads to increased leakage of hydrogen ions from the lumen and decreased transluminal membrane potential difference. With regard to the gross gastric lesion evaluation, the stomach of each rat was opened along the greater arc and washed with saline water to remove gastric contents. Gastric ulcers appear as elongated bands on the gastric mucosa with hemorrhagic lesions being parallel to the long axis of the stomach. The mucosa was assessed for damage under dissecting microscope (1.8×) and a planimeter was used to measure the ulcers area (hemorrhagic lesions). The length and width of each lesion were measured and the sum of the area of all lesions for each stomach was expressed as the ulcer area (mm^2). To determine mucus production of the gastric mucosa, the gastric mucosa of each rat was gently scraped using a glass slide and the mucus obtained was weighed using a precision electronic balance. For the histologic studies, gastric tissues were collected and fixed in 10% formalin after sacrifice. Then, each sample was embedded in paraffin and cut into 5 μm thick slices for morphological and pathological evaluation. Tissue sections were stained with hematoxylin and eosin (H & E) and examined under a light microscope.

[5] = system: COX-1; test: Western blot of COX-1 expression in rat gastric mucosa damaged by ethanol; format: in vivo; details: ethanol induced model, S3 25.6 mg/kg, indomethacin 25 mg/kg
[6] = system: COX-2; test: Western blot of COX-2 expression in rat gastric mucosa damaged by ethanol; details: ethanol induced model, S3 25.6 mg/kg, indomethacin 25 mg/kg
Protocol: A Western blot was performed for COX-1. […] For the Western blot analysis, 20 μg of protein was transferred to PVDF membranes, blocked in 5% skim milk in TBS buffer 1% Tween 20, and then incubated overnight with the COX-1, COX-2 and β-actin, followed by HRP-conjugated anti-rat/rabbit/goat antibodies for 2 hours at 25° C. Bands were visualized with the Luminata Western Chemiluminescent HRP Substrates and densitometric analysis of bands were assessed using LI-COR C-DiGit blot scanners.

[7] = LD50 determination by the Karber method; details: in vivo, mouse, 24 hours observation
Protocol: The LD50 of compound S3 was determined by the Karber method. […] For LD50 determination, an observation was made for each mouse for 24 hours and symptoms of toxicity and rate of mortality in each group were noted. At the end of the study period, expired animals were counted for the calculation of LD50. The following method was used for the determination of LD50: LD50=LD100−Σ×(a×b)/n, where n is the total number of animals in a group, a is the difference between two successive doses of administered extract/substance, b is the average number of dead animals in two successive doses, and LD100 is the lethal dose causing 100% death of all test animals.

[8] = system: malondialdehyde (MDA) content; details: rat, in vivo
Protocol: The mixture was heated at 95° C. for 60 minutes. After cooling, the reactants were supplemented with 5 mL of a mixture of n-butanol:pyridine (15:1 v/v), shaken vigorously for 1 minute and centrifuged for 10 minutes at 4000 rpm. The supernatant organic layer was taken out and absorbance was measured at 532 nm on a UV spectrophotometer. The results were expressed as nmol MDA/100 mg tissue. Data are expressed as mean±S.E.M., and the student's t-test was applied to determine the significance of the difference between the standard group and rats treated with the test compounds. The lipid peroxidation was measured as nanomoles of MDA content/100 mg of liver and kidney tissue.

[9] = pretreated rats, ethanol induced ulcer

Compound: COc1ccc2[nH]c(C)c(CC(=O)N/N=C/c3cc(OC)c(OC)cc3OC)c2c1 [Compound S14, 2-(5-methoxy-2-methyl-1H-indol-3-yl)-N′-[(E)-(2,4,5-trimethoxyphenyl)methylidene]acetohydrazide]
anti-inflammatory activity (in words) [1]: most potent compounds with significant anti-inflammatory activity | melting point: 238 to 240 °C | ulcerogenic activity (in words) [2]: less ulcerogenic than the reference drug indomethacin | analgesic activity (percentage change in reaction time) [3]: 70.27%

Compound: COc1ccc2[nH]c(C)c(CC(=O)N/N=C/c3cc(OC)c(OC)c(OC)c3)c2c1 [Compound S16, 2-(5-methoxy-2-methyl-1H-indol-3-yl)-N′-[(E)-(3,4,5-trimethoxyphenyl)methylidene]acetohydrazide]
melting point: 233 to 235 °C

Compound: COc1ccc(/C=N/NC(=O)Cc2c(C)[nH]c3ccc(OC)cc23)c(OC)c1 [Compound S18, 2-(5-methoxy-2-methyl-1H-indol-3-yl)-N′-[(E)-(2,4-dimethoxyphenyl)methylidene]acetohydrazide]
melting point: 170 to 172 °C

Compound: COc1ccc2c(c1)c(CC(=O)O)c(C)n2C(=O)c1ccc(Cl)cc1 [indomethacin, reference compound]
histology of gastric tissue (in words) ([4]; ethanol induced ulcer): severe ulceration in comparison with the ethanol induced ulceration | PAS staining of gastric mucosa (in words) [4, 9]: did not exhibit this magenta staining color of PAS | Ulcer index Mean ± SEM [4]: 12.34±0.73 mm^2 | Ulcer index Mean ± SEM ([4]; listed as Indomethacin): 12.34 ± 0.73 mm^2 | anti-inflammatory activity, % inhibition of paw edema ([1]; after 2 hours): 77.23% | anti-inflammatory activity, % inhibition of paw edema ([1]; after 4 hours): 76.89% | COX-1 expression / inhibition by Western blot (in words) [5]: potent COX-1 inhibitor

Compound: COc1ccc2[nH]c(C)c(CC(=O)N/N=C/c3ccc(OC)c(OC)c3OC)c2c1 [Compound S15, 2-(5-methoxy-2-methyl-1H-indol-3-yl)-N′-[(E)-(2,3,4-trimethoxyphenyl)methylidene]acetohydrazide]
melting point: 250 to 252 °C

Compound: COc1ccc2[nH]c(C)c(CC(=O)N/N=C/c3ccccc3[N+](=O)[O-])c2c1 [Compound S4, 2-(5-methoxy-2-methyl-1H-indol-3-yl)-N′-[(E)-(2-nitrophenyl)methylidene] acetohydrazide]
melting point: 210 to 212 °C

Compound: COc1ccc2[nH]c(C)c(CC(=O)N/N=C/c3cccc([N+](=O)[O-])c3)c2c1 [Compound S3, 2-(5-methoxy-2-methyl-1H-indol-3-yl)-N′-[(E)-(3-nitrophenyl)methylidene] acetohydrazide]
histology of gastric tissue (in words) ([4]; ethanol induced ulcer): normal glandular pattern with mild inflammation and infiltration of leucocytes | PAS staining of gastric mucosa (in words) [4, 9]: substantially continuous PAS-positive mucous gel layer | mucus production by gastric mucosa (in words) [4, 9]: increased gradually | Ulcer index Mean ± SEM [4]: 2.83±0.87 mm^2 | anti-inflammatory activity (in words) [1]: most potent compounds with significant anti-inflammatory activity | COX-2 expression / inhibition by Western blot (in words) [6]: potent COX-2 inhibition | LD50 at 24 h [7]: 35 mg/kg | lipid peroxidation (in words) [8]: maximum reduction in gastric ulceration and lipid peroxidation | ulcerogenic activity (in words) [2]: less ulcerogenic than the reference drug indomethacin | analgesic activity (percentage change in reaction time) [3]: 61.36% | COX-1 expression / inhibition by Western blot (in words) [5]: weak COX-1 expression

Compound: COc1cc(OC)c(/C=N/NC(=O)Cc2c(C)[nH]c3ccc(OC)cc23)c(OC)c1 [Compound S17, 2-(5-methoxy-2-methyl-1H-indol-3-yl)-N′-[(E)-(2,4,6-trimethoxyphenyl)methylidene]acetohydrazide]
melting point: 230 to 232 °C | analgesic activity (percentage change in reaction time) [3]: 61.53%

Compound: COc1ccc2[nH]c(C)c(CC(=O)N/N=C/c3ccc(O)cc3)c2c1 [Compound S9, N-[(E)-(4-hydroxyphenyl)methylidene]-2-(5-methoxy-2-methyl-1H-indol-3-yl)acetohydrazide]
analgesic activity (percentage change in reaction time) [3]: 55.81%

Now from value to compound, other results behind:

melting point: 238 to 240 °C
Compound: COc1ccc2[nH]c(C)c(CC(=O)N/N=C/c3ccc(Cl)cc3Cl)c2c1 [Compound S6, N′-[(E)-(2,4-dichlorophenyl)methylidene]-2-(5-methoxy-2-methyl-1H-indol-3-yl)acetohydrazide]

melting point: 145 to 147 °C
Compound: COc1ccc2[nH]c(C)c(CC(=O)N/N=C/c3cccc(O)c3)c2c1 [Compound S10, N′-[(E)-(3-hydroxyphenyl)methylidene]-2-(5-methoxy-2-methyl-1H-indol-3-yl)acetohydrazide]
analgesic activity (percentage change in reaction time) [3]: 62.50%

melting point: 180 to 182 °C
Compound: COc1ccc2[nH]c(C)c(CC(=O)N/N=C/c3ccc(Cl)cc3)c2c1 [Compound S5, N′-[(E)-(4-chlorophenyl)methylidene]-2-(5-methoxy-2-methyl-1H-indol-3-yl)acetohydrazide]

melting point: 213 to 215 °C
Compound: CCOc1ccc(/C=N/NC(=O)Cc2c(C)[nH]c3ccc(OC)cc23)cc1 [Compound S13, N′-[(E)-(4-ethoxyphenyl)methylidene]-2-(5-methoxy-2-methyl-1H-indol-3-yl)acetohydrazide]

melting point: 210 to 212 °C
Compound: COc1ccc2[nH]c(C)c(CC(=O)N/N=C/c3ccc(OC)c(OC)c3)c2c1 [Compound S7, 2-(5-methoxy-2-methyl-1H-indol-3-yl)-N′-[(E)-(3,4-dimethoxyphenyl)methylidene] acetohydrazide]
anti-inflammatory activity (in words) [1]: most potent compounds with significant anti-inflammatory activity | ulcerogenic activity (in words) [2]: less ulcerogenic than the reference drug indomethacin | analgesic activity (percentage change in reaction time) [3]: 47.72%

melting point: 200 to 202 °C
Compound: COc1ccc2[nH]c(C)c(CC(=O)N/N=C/c3ccc(N(C)C)cc3)c2c1 [Compound S11, 2-(5-methoxy-2-methyl-1H-indol-3-yl)-N′-{(E)-[4-(dimethylamino)phenyl]methylidene}acetohydrazide]

melting point: 195 to 197 °C
Compound: COc1cccc(/C=N/NC(=O)Cc2c(C)[nH]c3ccc(OC)cc23)c1 [Compound S12, 2-(5-methoxy-2-methyl-1H-indol-3-yl)-N′-[(E)-(3-methoxyphenyl)methylidene] acetohydrazide]

melting point: 220 to 222 °C
Compound: COc1ccc2[nH]c(C)c(CC(=O)N/N=C/c3ccccc3OC)c2c1 [Compound S8, 2-(5-methoxy-2-methyl-1H-indol-3-yl)-N′-[(E)-(2-methoxyphenyl)methylidene] acetohydrazide]
